{"source": "patent US11840686B2", "about": "“Modulation of prekallikrein (PKK) expression” (Ionis Pharmaceuticals, Inc., priority 2013, dated 2023)", "key": {"PKK protein [1]": {"system": "PKK protein", "test": "PKK protein in BALB/c mice plasma by immunoblot (Example 10)", "type": "in vivo, mouse", "conditions": "for % inhibition of PKK protein in BALB/c mice plasma: twice a week for 3 weeks, relative to PBS control", "experimental": "Six groups of male BALB/c mice each were treated with 2.5 mg/kg, 5.0 mg/kg, 10.0 mg/kg, 20.0 mg/kg, 40.0 mg/kg, or 80.0 mg/kg of ISIS 482584, administered subcutaneously twice a week for 3 weeks (weekly doses of 5.0 mg/kg, 10.0 mg/kg, 20.0 mg/kg, 40.0 mg/kg, 80.0 mg/kg, or 160.0 mg/kg). A control group of BALB/c mice was treated with PBS, administered subcutaneously twice a week for 3 weeks. Two days after the last dose of antisense oligonucleotide or PBS, mice from all groups were anesthetized with 150 mg/kg ketamine mixed with 10 mg/kg xylazine, administered by intraperitoneal injection. Liver was collected for RNA analysis.\nPlasma was collected in tubes containing sodium citrate as an anticoagulant. The samples were run on a 4-12% gradient SDS-polyacrylamide gel (Invitrogen), followed by immunoblotting with murine PKK antibody (R&D Systems). Blots were incubated with secondary fluorophore-labeled antibodies (LI-COR) and imaged in an Odyssey Imager (LI-COR). Results are presented as percent inhibition of PKK, relative to PBS control."}, "vascular leakage": {"system": "vascular leakage", "test": "Vascular leakage, plasma Evans Blue OD620, basal model (Example 14)", "type": "in vivo, mouse", "experimental": "Groups 3, 4, 5, 6, 7, and 8 consisted of 8 mice each and were treated with 2.5 mg/kg, 5 mg/kg, 10 mg/kg, 20 mg/kg, 40 mg/kg, or 80 mg/kg (corresponding to 5 mg/kg, 10 mg/kg, 20 mg/kg, 40 mg/kg, 80 mg/kg, or 160 mg/kg per week), respectively of ISIS 482584 administered subcutaneously twice a week for 3 weeks. […] served as the experimental treatment groups for examining the effect of varying doses of ISIS 482584 on basal vascular permeability.\nAll the groups were then injected with 30 mg/kg of Evans Blue solution in the tail vein. The mice were sacrificed 30 min after the Evans Blue solution administration and colons, feet, and ears were harvested and examined for permeability defects. Blood samples were taken through cardiac puncture.\nThe blood drawn through cardiac puncture was immediately mixed with 3 times the volume of ice-cold ethanol. The solution was centrifuged at 15,000 g for 20 minutes at 4° C. to remove cell debris and precipitated plasma proteins. The ethanol extracts were further purified by ultra-filtration through a 10 kDa MWCO filter. The color intensity of the ethanol extracted plasma solution was then measured at OD620 nm. The results are presented in Table 70 as percentage increase or decrease of the OD values of the Group 1 PBS control. It was expected that treatment groups may display higher OD values due to reduced vascular leakage."}, "human PKK mRNA": {"system": "human PKK mRNA", "test": "Antisense inhibition of human PKK mRNA in HepaRG cells, 1,000 nM, MOE/deoxy/cEt oligonucleotides (Example 3)", "type": "cell-based", "summary_of_the_method": "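HepaRG cells at 20,000 per well electroporated with 1,000 nM 16-mer MOE/cEt/deoxy gapmers (phosphorothioate, 5-methylcytosine). After about 24 h, PKK mRNA measured by qRT-PCR with primer probe set RTS3454, normalized to RIBOGREEN total RNA. Reported as percent inhibition versus untreated cells.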"}, "PKK protein [2]": {"system": "PKK protein", "test": "Plasma PKK protein levels in human KLKB1 transgenic mice (Example 7)", "type": "in vivo", "conditions": "transgenic mice", "summary_of_the_method": "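Human KLKB1 transgenic mice dosed subcutaneously twice weekly for 3 weeks with antisense oligonucleotides at 2.5, 5.0, 10 or 20 mg/kg/week. Plasma collected 48 hours after the final dose; PKK protein expressed as percent inhibition relative to PBS-treated controls.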"}, "[3]": {"test": "Urine protein/creatinine ratio in cynomolgus monkeys (Example 8)", "conditions": "cynomolgus monkey, 40 mg/kg sc", "method": "Prior to the study, the monkeys were kept in quarantine for a 30-day period, during which the animals were observed daily for general health. The monkeys were 2-4 years old and weighed between 2 and 4 kg. Ten groups of four randomly assigned male cynomolgus monkeys each were injected subcutaneously with ISIS oligonucleotide or PBS. PBS solution or ISIS oligonucleotides at a dose of 40 mg/kg were administered initially with a loading regimen consisting of four doses on the first week of the study (days 1, 3, 5, and 7), followed by a maintenance regimen consisting of once weekly administration starting on Day 14 (weeks 2 to 13). Subcutaneous injections were performed in clock-wise rotations at 4 sites on the back; one site per dose. The injection sites were delineated by tattoo, while sedated using ketamine, and were separated by a minimum of 3 cm.\nKidney function was also assessed by urinalysis. Fresh urine from all animals was collected using a clean cage pan on wet ice. Food was removed overnight the day before fresh urine collection was done but water was supplied. The total protein and creatinine levels were measured using a Toshiba 120FR NEO automated chemistry analyzer (Toshiba Co., Japan) and the protein to creatinine ratio was calculated."}}, "note": "Strand notation (5' to 3'): a small letter for the sugar, then the base; units joined by * are phosphorothioate-linked, units joined directly phosphodiester-linked; [ ] holds rarer units or linkages, { } end groups; capitals alone tell only the bases. e = 2'-O-(2-methoxyethyl) (MOE); [5mC] = 5-methylcytosine; d = 2'-deoxy (DNA)"}
{"substance": "ISIS 482584: 5-10-5 MOE gapmer targeting murine PKK, GGCATATTGGTTTTTGGAAT; SEQ ID NO: 2244 (antisense eG*eG*e[5mC]*eA*eT*dA*dT*dT*dG*dG*dT*dT*dT*dT*dT*eG*eG*eA*eA*eT)", "values": [{"measurement": "% inhibition of PKK protein in BALB/c mice plasma", "setting": "PKK protein [1]; 5 mg/kg/wk sc", "result": 5, "unit": "%"}, {"measurement": "% inhibition of PKK protein in BALB/c mice plasma", "setting": "PKK protein [1]; 10 mg/kg/wk sc", "result": 24, "unit": "%"}, {"measurement": "% inhibition of PKK protein in BALB/c mice plasma", "setting": "PKK protein [1]; 20 mg/kg/wk sc", "result": 47, "unit": "%"}, {"measurement": "% inhibition of PKK protein in BALB/c mice plasma", "setting": "PKK protein [1]; 40 mg/kg/wk sc", "result": 76, "unit": "%"}, {"measurement": "% inhibition of PKK protein in BALB/c mice plasma", "setting": "PKK protein [1]; 80 mg/kg/wk sc", "result": 81, "unit": "%"}, {"measurement": "reduction of PKK plasma protein", "setting": "PKK protein [1]; BALB/c mice, 2.5-80.0 mg/kg s.c. twice a week for 3 weeks, vs PBS", "result": "significant dose-dependent reduction of PKK plasma protein"}, {"measurement": "Percentage of OD620 nm of Evans Blue dye compared to the PBS basal control, Plasma", "setting": "vascular leakage; 10 mg/kg/week", "result": 36, "unit": "%"}, {"measurement": "Percentage of OD620 nm of Evans Blue dye compared to the PBS basal control, Plasma", "setting": "vascular leakage; 20 mg/kg/week", "result": 56, "unit": "%"}, {"measurement": "Percentage of OD620 nm of Evans Blue dye compared to the PBS basal control, Plasma", "setting": "vascular leakage; 40 mg/kg/week", "result": 83, "unit": "%"}, {"measurement": "Percentage of OD620 nm of Evans Blue dye compared to the PBS basal control, Plasma", "setting": "vascular leakage; 80 mg/kg/week", "result": 93, "unit": "%"}, {"measurement": "Percentage of OD620 nm of Evans Blue dye compared to the PBS basal control, Plasma", "setting": "vascular leakage; 160 mg/kg/week", "result": 95, "unit": "%"}]}
{"substance": "531231 (eT*eA*eT*e[5mC]*eA*d[5mC]*dT*dG*dT*dA*d[5mC]*dT*dA*dG*dT*eT*eT*e[5mC]*e[5mC]*eT) [compound 531231]", "values": [{"measurement": "% inhibition", "setting": "human PKK mRNA; HepaRG cells, 1,000 nM antisense oligonucleotide, Table 29", "result": 46, "unit": "%"}, {"measurement": "% inhibition", "setting": "human PKK mRNA; HepaRG cells, electroporation with 1,000 nM antisense oligonucleotide, approx. 24 hours, PKK mRNA by RT-PCR (RTS3454), relative to untreated control cells, Table 25 experiment", "result": 19, "unit": "%"}, {"measurement": "% inhibition", "setting": "human PKK mRNA; HepaRG cells, electroporation with 1,000 nM antisense oligonucleotide, approx. 24 hours, PKK mRNA by RT-PCR (RTS3454), relative to untreated control cells, Table 26 experiment", "result": 42, "unit": "%"}, {"measurement": "% inhibition", "setting": "human PKK mRNA; HepaRG cells, electroporation with 1,000 nM antisense oligonucleotide, approximately 24 hours, primer probe set RTS3454, relative to untreated control cells, experiment of Table 23", "result": 16, "unit": "%"}, {"measurement": "% inhibition", "setting": "human PKK mRNA; HepaRG cells, electroporation with 1,000 nM antisense oligonucleotide, approximately 24 hours, primer probe set RTS3454, relative to untreated control cells, experiment of Table 24", "result": 0, "unit": "%"}, {"measurement": "% inhibition", "setting": "human PKK mRNA; PKK mRNA, HepaRG cells, 1,000 nM antisense oligonucleotide, Table 31", "result": 48, "unit": "%"}, {"measurement": "% inhibition", "setting": "human PKK mRNA; Table 21 experiment, HepaRG cells, electroporation with 1,000 nM antisense oligonucleotide, approx. 24 hours, PKK mRNA by RT-PCR (RTS3454), relative to untreated control cells", "result": 62, "unit": "%"}, {"measurement": "% inhibition", "setting": "human PKK mRNA; Table 22 experiment, HepaRG cells, electroporation with 1,000 nM antisense oligonucleotide, approx. 24 hours, PKK mRNA by RT-PCR (RTS3454), relative to untreated control cells", "result": 75, "unit": "%"}, {"measurement": "% inhibition", "setting": "human PKK mRNA; Table 27, HepaRG cells, 1,000 nM antisense oligonucleotide, human PKK mRNA", "result": 72, "unit": "%"}, {"measurement": "% inhibition", "setting": "human PKK mRNA; Table 28, HepaRG cells, 1,000 nM antisense oligonucleotide, human PKK mRNA", "result": 46, "unit": "%"}, {"measurement": "% inhibition", "setting": "human PKK mRNA; Table 30, human PKK mRNA, HepaRG cells, 1,000 nM antisense oligonucleotide", "result": 46, "unit": "%"}]}
{"substance": "Tes Ges mCes Aes Aes Gds Tds mCds Tds mCds Tds Tds Gds Gds mCds Aes Aes Aes mCes Ae [ISIS 546254]", "values": [{"measurement": "human PKK protein inhibition", "setting": "PKK protein [2]; 2.5 mg/kg/week s.c. twice a week for 3 weeks", "result": 0, "unit": "%"}, {"measurement": "human PKK protein inhibition", "setting": "PKK protein [2]; 5.0 mg/kg/week s.c. twice a week for 3 weeks", "result": 36, "unit": "%"}, {"measurement": "human PKK protein inhibition", "setting": "PKK protein [2]; 10 mg/kg/week s.c. twice a week for 3 weeks", "result": 51, "unit": "%"}, {"measurement": "human PKK protein inhibition", "setting": "PKK protein [2]; 20 mg/kg/week s.c. twice a week for 3 weeks", "result": 76, "unit": "%"}, {"measurement": "Urine protein/creatinine ratio", "setting": "[3]", "result": 0.04}]}
